The results in this text go back to patent US4407815A, “β-Lactam antibacterial compounds, their preparation and pharmaceutical compositions containing them” (Beecham Group Limited, priority 1980, dated 1983).

Test in all cases: Minimum Inhibitory Concentration, serial dilution on DST agar
Common to all, as to type: cell-based

One assay has as its system Staph. aureus Russell. The note with it: lactamase-producing benzylpenicillin-resistant strain, DST agar + 10% horse blood, 0.001 ml of 10^-2 dilution (Gram-positive), 37° C., 18 h; for MIC: Staphylococcus aureus. The procedure: (§1) ^a Determined by serial dilution on DST agar containing 10% horse
(§2) blood using an inoculum of 0.001 ml of a 10^-2 dilution for
(§3) Grampositive bacteria or a 10^-4 dilution for Gramnegative organisms.
(§4) MIC values were read after incubation at 37° C. for 18 h.
^b Lactamase-producing benzylpenicillinresistant strain.

The test system of the next assay is B. subtilis. The note with it: DST agar + 10% horse blood, 0.001 ml of 10^-2 dilution (Gram-positive), 37° C., 18 h; for MIC: Bacillus subtilis. How it is done:
as §1, §2, §3, §4

The test system of the next assay is E. coli. To be noted: DST agar + 10% horse blood, 0.001 ml of 10^-4 dilution (Gram-negative), 37° C., 18 h; for MIC: Escherichia coli. The procedure: as §1, §2, §3, §4
A further assay concerns Strep. faecalis. The note with it: DST agar + 10% horse blood, 0.001 ml of 10^-2 dilution (Gram-positive), 37° C., 18 h. The procedure: as §1, §2, §3, §4
Another assay relates to Strep. pneumoniae. The note with it: DST agar + 10% horse blood, 0.001 ml of 10^-2 dilution (Gram-positive), 37° C., 18 h. How it is done:
as §1, §2, §3, §4

The next assay deals with S. typhimurium. To be noted: DST agar + 10% horse blood, 0.001 ml of 10^-4 dilution (Gram-negative), 37° C., 18 h; for MIC: Salmonella enterica. The procedure: as §1, §2, §3, §4
A further assay deals with Proteus mirabilis. To be noted: DST agar + 10% horse blood, 0.001 ml of 10^-4 dilution (Gram-negative), 37° C., 18 h. The procedure: as §1, §2, §3, §4
The test system of the next assay is Klebsiella aerogenes. To be noted: DST agar + 10% horse blood, 0.001 ml of 10^-4 dilution (Gram-negative), 37° C., 18 h. How it is done:
as §1, §2, §3, §4

Another assay has as its system Staph. aureus Oxford. To be noted: DST agar + 10% horse blood, 0.001 ml of 10^-2 dilution (Gram-positive), 37° C., 18 h; for MIC: Staphylococcus aureus. How it is done: as §1, §2, §3, §4

Take `COC(=O)C1=C[C@@H]2[C@H](NC(=O)[C@H](N)c3ccccc3)C(=O)N2[C@H]1C(=O)O.Cc1ccc(N)cc1` (racemic) [(48), (2RS, 5RS, 6SR) 1-Aza-3-methoxycarbonyl-6-D-α-phenylglycylamino-bicyclo-[3.2.0]-hept-3-en-7-one-2-carboxylic acid, p-toluidine salt]: the “Minimum Inhibitory Concentration” value was > 50 µg/mL in the assay on Staph. aureus Russell; 1.2 µg/mL with B. subtilis; 50 µg/mL in the assay with E. coli; 12.5 µg/mL in the assay with Strep. faecalis; 0.5 µg/mL with Strep. pneumoniae; 12.5 µg/mL with S. typhimurium. Moreover, the “Minimum Inhibitory Concentration” value was determined as 25 µg/mL in the assay on Proteus mirabilis, 50 µg/mL with Klebsiella aerogenes and 12.5 µg/mL in the assay with Staph. aureus Oxford.
As a reminder, the MIC is the smallest concentration in the dilution series that meets the test's criterion for growth inhibition. Turning to `COC(=O)C1=C[C@@H]2[C@H](NC(=O)COc3ccccc3)C(=O)N2[C@H]1C(=O)O` (relative stereo) [(39), (2RS, 5RS, 6SR) Sodium 1-aza-3-methoxycarbonyl-6-phenoxyacetamido-bicyclo-[3.2.0]-hept-3-en-7-one-2-carboxylate], the MIC in the assay on Staph. aureus Russell was > 100 µg/mL; with B. subtilis, 1 µg/mL; in the assay on E. coli, > 100 µg/mL; in the assay on S. typhimurium it was > 100 µg/mL; in the assay on Proteus mirabilis, > 100 µg/mL; in the assay on Klebsiella aerogenes it was > 100 µg/mL. For the same compound, the MIC in the assay on Staph. aureus Oxford is 2.5 µg/mL.
With `N#CC1=C[C@@H]2[C@H](NC(=O)COc3ccccc3)C(=O)N2[C@H]1C(=O)O` (relative stereo) [(57)], the MIC in the assay on Staph. aureus Russell was 50 µg/mL; in the assay on B. subtilis, 2.5 µg/mL; with E. coli, > 50 µg/mL; in the assay with Strep. faecalis (Enterococcus faecalis), > 50 µg/mL; in the assay with Strep. pneumoniae (Streptococcus pneumoniae), 1.2 µg/mL; in the assay with S. typhimurium, > 50 µg/mL. For the same compound, the MIC in the assay with Proteus mirabilis is > 50 µg/mL; in the assay on Klebsiella aerogenes, > 50 µg/mL; in the assay on Staph. aureus Oxford it was 5 µg/mL.
Take `COC(=O)C1=C[C@@H]2[C@H](NC(=O)C(C(=O)OCc3ccccc3)c3ccccc3)C(=O)N2[C@H]1C(=O)O.Cc1ccc(N)cc1` (mixture of isomers) [(54), (2RS, 5RS, 6SR) 1-Aza-6-(DL-α-benzyloxycarbonyl-phenylacetamido)-3-methoxycarbonylbicyclo [3.2.0]-hept-3-en-7-one-2-carboxylic acid, p-toluidine salt]: the “Minimum Inhibitory Concentration” value in the assay with Staph. aureus Russell was > 100 µg/mL; in the assay with B. subtilis it was 25 µg/mL; with E. coli, > 100 µg/mL; in the assay with Strep. faecalis, > 100 µg/mL; in the assay with Strep. pneumoniae, 10 µg/mL; in the assay with S. typhimurium it was 100 µg/mL. The “Minimum Inhibitory Concentration” value in the assay with Proteus mirabilis is > 100 µg/mL; with Klebsiella aerogenes, 100 µg/mL; in the assay on Staph. aureus Oxford, > 100 µg/mL.
